Laboratory results: US20220089575A1, “FARNESOID X RECEPTOR AGONISTS AND USES THEREOF” (Metacrine, Inc., priority 2017, published 2022)

Target: T1, hFXR (Homo sapiens, UniProt Q96RI1)
T1 construct: expressed in transfected cells; host or cells: CV-1 cells
T1 sequence (Q96RI1 1-486): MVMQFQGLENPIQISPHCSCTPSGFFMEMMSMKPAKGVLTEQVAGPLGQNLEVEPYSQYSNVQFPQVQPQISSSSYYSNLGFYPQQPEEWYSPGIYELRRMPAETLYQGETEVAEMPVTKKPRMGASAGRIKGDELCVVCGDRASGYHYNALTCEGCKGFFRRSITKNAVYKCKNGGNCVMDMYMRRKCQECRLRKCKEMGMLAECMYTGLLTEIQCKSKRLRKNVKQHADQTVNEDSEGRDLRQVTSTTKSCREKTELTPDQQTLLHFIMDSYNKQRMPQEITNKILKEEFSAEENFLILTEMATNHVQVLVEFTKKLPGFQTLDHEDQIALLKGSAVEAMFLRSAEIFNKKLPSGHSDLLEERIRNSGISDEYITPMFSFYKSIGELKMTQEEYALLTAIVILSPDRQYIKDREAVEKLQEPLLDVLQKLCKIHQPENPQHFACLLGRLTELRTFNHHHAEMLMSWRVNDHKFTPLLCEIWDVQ
T1 sequence (P19793 1-462 partner): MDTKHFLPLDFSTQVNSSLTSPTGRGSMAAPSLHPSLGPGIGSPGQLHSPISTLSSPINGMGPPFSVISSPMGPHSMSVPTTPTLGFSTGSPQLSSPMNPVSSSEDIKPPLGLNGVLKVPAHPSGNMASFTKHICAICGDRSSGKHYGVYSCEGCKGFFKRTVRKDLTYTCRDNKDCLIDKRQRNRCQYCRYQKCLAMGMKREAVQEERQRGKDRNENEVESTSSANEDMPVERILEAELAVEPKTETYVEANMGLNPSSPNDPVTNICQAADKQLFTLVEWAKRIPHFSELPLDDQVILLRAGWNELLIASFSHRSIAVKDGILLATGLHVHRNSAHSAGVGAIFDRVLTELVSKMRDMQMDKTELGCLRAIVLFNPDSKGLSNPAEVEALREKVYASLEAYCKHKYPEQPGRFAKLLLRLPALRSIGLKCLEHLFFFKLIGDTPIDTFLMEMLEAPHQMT
Test: In Vitro FXR Assay (TK): TK-ECRE-luc reporter in transfected CV-1 cells
Format: cell-based
Details: 18 hrs, luminescence, maximum efficacy of <25% of the Fexarmine control classified as '+'
Procedure: CV-1 cells were seeded at a density of 2,000,000 cells in a T175 flask with DMEM+10% charcoal double-stripped FBS and incubated at 37° C. in 5% CO2 for 18 h (O/N).
After 18 h of incubation, the medium in the T175 flask was changed with fresh DMEM+10% charcoal super-stripped serum. In a polypropylene tube, 2500 μL OptiMEM (Life Technologies, Cat #31985-062) was combined with expression plasmids for hFXR, hRXR, TK-ECRE-luc and pCMX-YFP. The tube was then briefly vortexed and incubated at room temperature for 5 minutes. Transfection reagent (X-tremeGENE HP from Roche, Cat #06 366 236 001) was added to the OptiMEM/plasmid mixture vortexed and incubated at room temperature for 20 minutes. Following incubation, the transfection reagent/DNA mixture complex was added to cells in the T175 flask and the cells were incubated at 37° C. in 5% CO2 for 18 h (O/N).
Compounds were serially diluted in DMSO and added to transfected CV-1 cells. The cells were then incubated for 18 hrs. The next day cells were lysed and examined for luminescence.

Compound	EC50
COc1ccc([C@H]2CC[C@H](CN(c3cccc(-c4cnn(C5CC5)c4)c3)C(=O)[C@H]3CC[C@H](OC(=O)NCCCO)CC3)CC2)cc1C [Compound 4.10, trans-4-((3-(1-Cyclopropyl-1H-pyrazol-4-yl)phenyl)((trans-4-(4-methoxy-3-methylphenyl)cyclohexyl)methyl)carbamoyl)cyclohexyl (3-hydroxypropyl)carbamate]	≤ 250 nM
COc1ccc([C@H]2CC[C@H](CN(c3cccc(-c4cnn(C5CC5)c4)c3)C(=O)[C@H]3CC[C@H](OC(=O)NCCCN(C)C)CC3)CC2)cc1C [Compound 4.11, trans-4-((3-(1-Cyclopropyl-1H-pyrazol-4-yl)phenyl)((trans-4-(4-methoxy-3-methylphenyl)cyclohexyl)methyl)carbamoyl)cyclohexyl (3-(dimethylamino)propyl)carbamate]	≤ 250 nM
CN(C)c1ccc(C23CCC(CN(c4cccc(-c5cnn(C6CC6)c5)c4)C(=O)[C@H]4CC[C@H](OC(=O)NCCO)CC4)(CC2)CC3)cn1 [Compound 4.12, 4-((3-(1-Cyclopropyl-1H-pyrazol-4-yl)phenyl)((4-(6-(dimethylamino)pyridin-3-yl)bicyclo[2.2.2]octan-1-yl)methyl)carbamoyl)cyclohexyl (2-hydroxyethyl)trans-carbamate]	≤ 250 nM
COc1ccc([C@H]2CC[C@H](CN(c3cccc(-c4cnn(C5CC5)c4)c3)C(=O)[C@H]3CC[C@H](OC(=O)NCc4ncc[nH]4)CC3)CC2)cc1C [Compound 4.13, trans-4-((3-(1-Cyclopropyl-1H-pyrazol-4-yl)phenyl)((trans-4-(4-methoxy-3-methylphenyl)cyclohexyl)methyl)carbamoyl)cyclohexyl ((1H-imidazol-2-yl)methyl)carbamate]	≤ 250 nM
COc1ccc([C@H]2CC[C@H](CN(c3cccc(-c4cnn(C5CC5)c4)c3)C(=O)[C@H]3CC[C@H](OC(=O)NCCN(C)C(=O)OC(C)(C)C)CC3)CC2)cc1C [Compound 4.14, tert-Butyl (2-((((trans-4-((3-(1-cyclopropyl-1H-pyrazol-4-yl)phenyl)((trans-4-(4-methoxy-3-methylphenyl)cyclohexyl)methyl)carbamoyl)cyclohexyl)oxy)carbonyl)amino)ethyl)(methyl)carbamate]	≤ 250 nM
COc1ccc([C@H]2CC[C@H](CN(c3cccc(-c4cnn(C5CC5)c4)c3)C(=O)[C@H]3CC[C@H](OC(=O)NCc4c[nH]cn4)CC3)CC2)cc1C [Compound 4.15, trans-4-((3-(1-Cyclopropyl-1H-pyrazol-4-yl)phenyl)((trans-4-(4-methoxy-3-methylphenyl)cyclohexyl)methyl)carbamoyl)cyclohexyl ((1H-imidazol-4-yl)methyl)carbamate]	≤ 250 nM
COc1ccc([C@H]2CC[C@H](CN(c3cccc(-c4cnn(C5CC5)c4)c3)C(=O)[C@H]3CC[C@H](OC(=O)NCCN)CC3)CC2)cc1C [Compound 4.16, trans-4-((3-(1-Cyclopropyl-1H-pyrazol-4-yl)phenyl)((trans-4-(4-methoxy-3-methylphenyl)cyclohexyl)methyl)carbamoyl)cyclohexyl (2-aminoethyl)carbamate]	≤ 250 nM
COc1ccc([C@H]2CC[C@H](CN(c3cccc(-c4cnn(C5CC5)c4)c3)C(=O)[C@H]3CC[C@H](OC(=O)NC4CN(C(=O)OC(C)(C)C)C4)CC3)CC2)cc1C [Compound 4.17, tert-Butyl 3-((((trans-4-((3-(1-cyclopropyl-1H-pyrazol-4-yl)phenyl)((trans-4-(4-methoxy-3-methylphenyl)cyclohexyl)methyl)carbamoyl)cyclohexyl)oxy)carbonyl)amino)azetidine-1-carboxylate]	≤ 250 nM
COc1ccc([C@H]2CC[C@H](CN(c3cccc(-c4cnn(C5CC5)c4)c3)C(=O)[C@H]3CC[C@H](OC(=O)NC4CNC4)CC3)CC2)cc1C [Compound 4.18, trans-4-((3-(1-Cyclopropyl-1H-pyrazol-4-yl)phenyl)((trans-4-(4-methoxy-3-methylphenyl)cyclohexyl)methyl)carbamoyl)cyclohexyl azetidin-3-ylcarbamate]	≤ 250 nM
COc1ccc([C@H]2CC[C@H](CN(c3cc(-c4cnn(C5CC5)c4)ccn3)C(=O)[C@H]3CC[C@H](OC(=O)NCCO)CC3)CC2)cc1C [Compound 4.19, trans-4-((4-(1-Cyclopropyl-1H-pyrazol-4-yl)pyridin-2-yl)((trans-4-(4-methoxy-3-methylphenyl)cyclohexyl)methyl)carbamoyl)cyclohexyl (2-hydroxyethyl)carbamate]	≤ 250 nM
COc1ccc([C@H]2CC[C@H](CN(c3cccc(-c4cnn(C5CC5)c4)c3)C(=O)[C@H]3CC[C@H](OC(=O)NCCCCN(C)C)CC3)CC2)cc1C [Compound 4.20, trans-4-((3-(1-Cyclopropyl-1H-pyrazol-4-yl)phenyl)((trans-4-(4-methoxy-3-methylphenyl)cyclohexyl)methyl)carbamoyl)cyclohexyl (4-(dimethylamino)butyl)carbamate]	≤ 250 nM
COc1ccc([C@H]2CC[C@H](CN(c3cccc(-c4cnn(C5CC5)c4)c3)C(=O)[C@H]3CC[C@H](OC(=O)NCCCCCN(C)C)CC3)CC2)cc1C [Compound 4.21, trans-4-((3-(1-Cyclopropyl-1H-pyrazol-4-yl)phenyl)((trans-4-(4-methoxy-3-methylphenyl)cyclohexyl)methyl)carbamoyl)cyclohexyl (5-(dimethylamino)pentyl)carbamate]	≤ 250 nM

The remaining lines, values ahead:

EC50	Compound
≤ 250 nM	COc1ccc(C23CCC(CN(c4cccc(-c5cnn(C6CC6)c5)c4)C(=O)[C@H]4CC[C@H](OC(=O)NCCO)CC4)(CC2)CC3)cc1C [Compound 4.04, 4-((3-(1-Cyclopropyl-1H-pyrazol-4-yl)phenyl)((4-(4-methoxy-3-methylphenyl)bicyclo[2.2.2]octan-1-yl)methyl)carbamoyl)cyclohexyl (2-hydroxyethyl)trans-carbamate]
≤ 250 nM	COc1ccc([C@H]2CC[C@H](CN(c3cccc(-c4cnn(C5CC5)c4)c3)C(=O)[C@H]3CC[C@H](OC(=O)NC(C)C)CC3)CC2)cc1C [Compound 4.05, trans-4-((3-(1-Cyclopropyl-1H-pyrazol-4-yl)phenyl)((trans-4-(4-methoxy-3-methylphenyl)cyclohexyl)methyl)carbamoyl)cyclohexyl isopropylcarbamate]
≤ 250 nM	COc1ccc([C@H]2CC[C@H](CN(c3cccc(-c4cnn(C5CC5)c4)c3)C(=O)[C@H]3CC[C@H](OC(=O)N4CC(OC)C4)CC3)CC2)cc1C [Compound 4.06, trans-4-((3-(1-Cyclopropyl-1H-pyrazol-4-yl)phenyl)((trans-4-(4-methoxy-3-methylphenyl)cyclohexyl)methyl)carbamoyl)cyclohexyl 3-methoxyazetidine-1-carboxylate]
≤ 250 nM	COc1ccc([C@H]2CC[C@H](CN(c3cccc(-c4cnn(C5CC5)c4)c3)C(=O)[C@H]3CC[C@H](OC(=O)N4CCOCC4)CC3)CC2)cc1C [Compound 4.07, trans-4-((3-(1-Cyclopropyl-1H-pyrazol-4-yl)phenyl)((trans-4-(4-methoxy-3-methylphenyl)cyclohexyl)methyl)carbamoyl)cyclohexyl morpholine-4-carboxylate]
≤ 250 nM	COc1ccc([C@H]2CC[C@H](CN(c3cccc(-c4cnn(C5CC5)c4)c3)C(=O)[C@H]3CC[C@H](OC(=O)NC4CC4)CC3)CC2)cc1C [Compound 4.08, trans-4-((3-(1-Cyclopropyl-1H-pyrazol-4-yl)phenyl)((trans-4-(4-methoxy-3-methylphenyl)cyclohexyl)methyl)carbamoyl)cyclohexyl cyclopropylcarbamate]
≤ 250 nM	COc1ccc([C@H]2CC[C@H](CN(c3cccc(-c4cnn(C5CC5)c4)c3)C(=O)[C@H]3CC[C@H](OC(=O)NCCN(C)C)CC3)CC2)cc1C [Compound 4.09, trans-4-((3-(1-Cyclopropyl-1H-pyrazol-4-yl)phenyl)((trans-4-(4-methoxy-3-methylphenyl)cyclohexyl)methyl)carbamoyl)cyclohexyl (2-(dimethylamino)ethyl)carbamate]
